The values that follow are results of earlier work, collected in patent publication US20260083654A1, “PHOTOPROTECTIVE SYSTEM CONSISTING OF 4 SUNSCREENS” (PIERRE FABRE DERMO-COSMETIQUE, priority 2019, published 2026).

Values joined by “and” are separate entries in the source; they are usually repeats but may differ in a detail not shown here. Equal values may be shown once.

For this data set the following is noted: two peaks, broad spectrum filter.

As for `CCCCC(CC)COc1ccc(-c2nc(-c3ccc(OC)cc3)nc(-c3ccc(OCC(CC)CCCC)cc3O)n2)c(O)c1` (stereo not shown) [BEMT, 2,4-bis[4-(2-ethylhexyloxy)-2-hydroxyphenyl]-6-(4-methoxyphenyl)-1,3,5-triazine], the absorption peaks was 310 nm and 340 nm.
